From patent publication US10081624B2, “Heterocyclic compound” (Takeda Pharmaceutical Company Limited, priority 2014, dated 2018)

Target: T1, HDAC6 enzyme (Homo sapiens, UniProt Q9UBN7)
T1 construct: prepared by transducing full length HDAC1 and HDAC6 genes into Sf-9 insect cells; GST; purchased SignalChem; host or cells: Sf-9 insect cells
T1 sequence (Q9UBN7 1-1215): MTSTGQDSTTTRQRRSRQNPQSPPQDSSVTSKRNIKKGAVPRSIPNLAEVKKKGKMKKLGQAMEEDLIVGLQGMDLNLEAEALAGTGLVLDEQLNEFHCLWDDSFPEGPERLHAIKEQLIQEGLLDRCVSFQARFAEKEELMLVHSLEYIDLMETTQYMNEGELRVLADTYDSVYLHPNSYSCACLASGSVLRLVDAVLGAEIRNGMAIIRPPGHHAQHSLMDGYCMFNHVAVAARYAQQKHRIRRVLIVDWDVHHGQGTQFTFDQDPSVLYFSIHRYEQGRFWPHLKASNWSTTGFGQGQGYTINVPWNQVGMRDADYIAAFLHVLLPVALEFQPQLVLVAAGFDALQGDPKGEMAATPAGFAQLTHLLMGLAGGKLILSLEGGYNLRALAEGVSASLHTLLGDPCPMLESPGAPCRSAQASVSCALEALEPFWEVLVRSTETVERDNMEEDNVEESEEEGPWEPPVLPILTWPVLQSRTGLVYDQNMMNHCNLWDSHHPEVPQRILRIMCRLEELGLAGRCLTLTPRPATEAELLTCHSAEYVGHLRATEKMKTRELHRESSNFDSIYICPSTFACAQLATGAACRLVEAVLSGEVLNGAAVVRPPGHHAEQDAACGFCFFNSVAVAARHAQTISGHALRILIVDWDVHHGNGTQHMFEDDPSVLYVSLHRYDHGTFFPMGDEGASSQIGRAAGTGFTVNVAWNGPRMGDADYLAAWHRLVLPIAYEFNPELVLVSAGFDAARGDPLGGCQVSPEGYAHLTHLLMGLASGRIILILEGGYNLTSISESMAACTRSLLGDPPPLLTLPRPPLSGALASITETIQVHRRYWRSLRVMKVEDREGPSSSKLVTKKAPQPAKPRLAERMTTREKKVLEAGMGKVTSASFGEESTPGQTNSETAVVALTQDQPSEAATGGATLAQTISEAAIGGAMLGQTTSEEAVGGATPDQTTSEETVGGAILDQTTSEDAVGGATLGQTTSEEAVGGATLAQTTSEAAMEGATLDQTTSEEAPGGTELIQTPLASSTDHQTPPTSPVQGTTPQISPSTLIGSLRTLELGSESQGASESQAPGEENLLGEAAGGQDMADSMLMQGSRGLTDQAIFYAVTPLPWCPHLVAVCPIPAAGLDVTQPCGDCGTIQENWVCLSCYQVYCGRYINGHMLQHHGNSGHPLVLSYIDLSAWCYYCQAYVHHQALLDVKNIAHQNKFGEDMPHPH
Experiment: HDAC6 enzyme inhibitory assay (HDAC-Glo I/II Assay kit)
Format: biochemical
Settings: 1 μM test compound; read-out: HDAC6 inhibitory rate (%) (1 μM)
Method in brief: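 Luminescent HDAC-Glo I/II read-out after 20 min room-temperature reaction with substrate-developer, following a 60 min room-temperature enzyme–compound preincubation. Enzymes: full-length HDAC1 or HDAC6 from Sf-9 cells, GST-purified; buffer pH 7.5 Tris with NaCl, glutathione, 0.01% Tween-20. No-enzyme wells defined 100% inhibition.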

`O=C(NC[C@H]1COCCN1C(=O)Cc1cccs1)c1ccc(-c2noc(C(F)(F)F)n2)cn1` [Example 201, N-(((3S)-4-(2-thienylacetyl)morpholin-3-yl)methyl)-5-(5-(trifluoromethyl)-1,2,4-oxadiazol-3-yl)pyridine-2-carboxamide] showed an inhibition at 1 µM of 95%.

`O=C(NC[C@H]1COCCN1C(=O)CCc1ccccc1)c1ccc(-c2noc(C(F)(F)F)n2)cn1` [Example 203, N-(((3S)-4-(3-phenylpropanoyl)morpholin-3-yl)methyl)-5-(5-(trifluoromethyl)-1,2,4-oxadiazol-3-yl)pyridine-2-carboxamide] gave an inhibition at 1 µM of 95%.

`O=C(NCC1COCCN1C(=O)c1cccc(F)c1)c1ccc(-c2noc(C(F)(F)F)n2)s1` (stereo not drawn) [Example 212, N-((4-(3-fluorobenzoyl)morpholin-3-yl)methyl)-5-(5-(trifluoromethyl)-1,2,4-oxadiazol-3-yl)thiophene-2-carboxamide] gave an inhibition at 1 µM of 97%.

`O=C(NCC1COCCN1C(=O)c1cc(F)cc(F)c1)c1ccc(-c2noc(C(F)(F)F)n2)s1` (stereo not drawn) [Example 213, N-((4-(3,5-difluorobenzoyl)morpholin-3-yl)methyl)-5-(5-(trifluoromethyl)-1,2,4-oxadiazol-3-yl)thiophene-2-carboxamide] showed an inhibition at 1 µM of 95%.

For `O=C(NCC1COCCN1C(=O)c1ccccc1Cl)c1ccc(-c2noc(C(F)(F)F)n2)s1` (stereo not drawn) [Example 214, N-((4-(2-chlorobenzoyl)morpholin-3-yl)methyl)-5-(5-(trifluoromethyl)-1,2,4-oxadiazol-3-yl)thiophene-2-carboxamide], the inhibition at 1 µM was 96%.

`O=C(NCC1COCCN1C(=O)c1cccc(Cl)c1)c1ccc(-c2noc(C(F)(F)F)n2)s1` (stereo not drawn) [Example 215, N-((4-(3-chlorobenzoyl)morpholin-3-yl)methyl)-5-(5-(trifluoromethyl)-1,2,4-oxadiazol-3-yl)thiophene-2-carboxamide] was tested, and the inhibition at 1 µM was 94%.

`O=C(NCC1COCCN1C(=O)c1ccc(Cl)cc1)c1ccc(-c2noc(C(F)(F)F)n2)s1` (stereo not drawn) [Example 216, N-((4-(4-chlorobenzoyl)morpholin-3-yl)methyl)-5-(5-(trifluoromethyl)-1,2,4-oxadiazol-3-yl)thiophene-2-carboxamide] gave an inhibition at 1 µM of 93%.

`N#Cc1ccccc1C(=O)N1CCOCC1CNC(=O)c1ccc(-c2noc(C(F)(F)F)n2)s1` (stereo not drawn) [Example 217, N-((4-(2-cyanobenzoyl)morpholin-3-yl)methyl)-5-(5-(trifluoromethyl)-1,2,4-oxadiazol-3-yl)thiophene-2-carboxamide] gave an inhibition at 1 µM of 94%.

Compound `N#Cc1cccc(C(=O)N2CCOCC2CNC(=O)c2ccc(-c3noc(C(F)(F)F)n3)s2)c1` (stereo not drawn) [Example 218, N-((4-(3-cyanobenzoyl)morpholin-3-yl)methyl)-5-(5-(trifluoromethyl)-1,2,4-oxadiazol-3-yl)thiophene-2-carboxamide] has an inhibition at 1 µM of 91%.

For `N#Cc1ccc(C(=O)N2CCOCC2CNC(=O)c2ccc(-c3noc(C(F)(F)F)n3)s2)cc1` (stereo not drawn) [Example 219, N-((4-(4-cyanobenzoyl)morpholin-3-yl)methyl)-5-(5-(trifluoromethyl)-1,2,4-oxadiazol-3-yl)thiophene-2-carboxamide], the inhibition at 1 µM was 90%.

`O=C(NCC1COCCN1C(=O)c1ccccc1N1CCOCC1)c1ccc(-c2noc(C(F)(F)F)n2)s1` (stereo not drawn) [Example 220, N-((4-(2-(morpholin-4-yl)benzoyl)morpholin-3-yl)methyl)-5-(5-(trifluoromethyl)-1,2,4-oxadiazol-3-yl)thiophene-2-carboxamide] gave an inhibition at 1 µM of 94%.

For `O=C(NCC1COCCN1C(=O)c1ccccc1-c1ccccc1)c1ccc(-c2noc(C(F)(F)F)n2)s1` (stereo not drawn) [Example 221, N-((4-(biphenyl-2-ylcarbonyl)morpholin-3-yl)methyl)-5-(5-(trifluoromethyl)-1,2,4-oxadiazol-3-yl)thiophene-2-carboxamide], the inhibition at 1 µM was 91%.

`O=C(NCC1COCCN1C(=O)c1ccc(-c2ccccc2)cc1)c1ccc(-c2noc(C(F)(F)F)n2)s1` (stereo not drawn) [Example 223, N-((4-(biphenyl-4-ylcarbonyl)morpholin-3-yl)methyl)-5-(5-(trifluoromethyl)-1,2,4-oxadiazol-3-yl)thiophene-2-carboxamide] was tested, and the inhibition at 1 µM was 93%.

In the case of `O=C(NCC1COCCN1C(=O)c1ccccn1)c1ccc(-c2noc(C(F)(F)F)n2)s1` (stereo not drawn) [Example 224, N-((4-(pyridin-2-ylcarbonyl)morpholin-3-yl)methyl)-5-(5-(trifluoromethyl)-1,2,4-oxadiazol-3-yl)thiophene-2-carboxamide], the inhibition at 1 µM is reported as 92%.

For `O=C(NCC1COCCN1C(=O)c1cccnc1)c1ccc(-c2noc(C(F)(F)F)n2)s1` (stereo not drawn) [Example 225, N-((4-(pyridin-3-ylcarbonyl)morpholin-3-yl)methyl)-5-(5-(trifluoromethyl)-1,2,4-oxadiazol-3-yl)thiophene-2-carboxamide], the inhibition at 1 µM was 92%.

Compound `O=C(NCC1COCCN1C(=O)c1ccncc1)c1ccc(-c2noc(C(F)(F)F)n2)s1` (stereo not drawn) [Example 226, N-((4-isonicotinoylmorpholin-3-yl)methyl)-5-(5-(trifluoromethyl)-1,2,4-oxadiazol-3-yl)thiophene-2-carboxamide] has an inhibition at 1 µM of 95%.

In the case of `Cc1cc(C(=O)N2CCOCC2CNC(=O)c2ccc(-c3noc(C(F)(F)F)n3)s2)ccn1` (stereo not drawn) [Example 227, N-((4-(2-methylisonicotinoyl)morpholin-3-yl)methyl)-5-(5-(trifluoromethyl)-1,2,4-oxadiazol-3-yl)thiophene-2-carboxamide], the inhibition at 1 µM is reported as 91%.

With `Cn1ccnc1C(=O)N1CCOCC1CNC(=O)c1ccc(-c2noc(C(F)(F)F)n2)s1` (stereo not drawn) [Example 228, N-((4-((1-methyl-1H-imidazol-2-yl)carbonyl)morpholin-3-yl)methyl)-5-(5-(trifluoromethyl)-1,2,4-oxadiazol-3-yl)thiophene-2-carboxamide] the inhibition at 1 µM was 77%.

For `Cn1nccc1C(=O)N1CCOCC1CNC(=O)c1ccc(-c2noc(C(F)(F)F)n2)s1` (stereo not drawn) [Example 229, N-((4-((1-methyl-1H-pyrazol-5-yl)carbonyl)morpholin-3-yl)methyl)-5-(5-(trifluoromethyl)-1,2,4-oxadiazol-3-yl)thiophene-2-carboxamide], the inhibition at 1 µM was 97%.

Compound `Cc1cc(C(=O)N2CCOCC2CNC(=O)c2ccc(-c3noc(C(F)(F)F)n3)s2)n(C)n1` (stereo not drawn) [Example 230, N-((4-((1,3-dimethyl-1H-pyrazol-5-yl)carbonyl)morpholin-3-yl)methyl)-5-(5-(trifluoromethyl)-1,2,4-oxadiazol-3-yl)thiophene-2-carboxamide] has an inhibition at 1 µM of 88%.

`Cn1nc(C(F)(F)F)cc1C(=O)N1CCOCC1CNC(=O)c1ccc(-c2noc(C(F)(F)F)n2)s1` (stereo not drawn) [Example 231, N-((4-((1-methyl-3-(trifluoromethyl)-1H-pyrazol-5-yl)carbonyl)morpholin-3-yl)methyl)-5-(5-(trifluoromethyl)-1,2,4-oxadiazol-3-yl)thiophene-2-carboxamide] was tested, and the inhibition at 1 µM was 92%.

`Cn1cc(C(=O)N2CCOCC2CNC(=O)c2ccc(-c3noc(C(F)(F)F)n3)s2)cn1` (stereo not drawn) [Example 233, N-((4-((1-methyl-1H-pyrazol-4-yl)carbonyl)morpholin-3-yl)methyl)-5-(5-(trifluoromethyl)-1,2,4-oxadiazol-3-yl)thiophene-2-carboxamide] was tested, and the inhibition at 1 µM was 78%.

`Cn1cnc(C(=O)N2CCOCC2CNC(=O)c2ccc(-c3noc(C(F)(F)F)n3)s2)c1` (stereo not drawn) [Example 234, N-((4-((1-methyl-1H-imidazol-4-yl)carbonyl)morpholin-3-yl)methyl)-5-(5-(trifluoromethyl)-1,2,4-oxadiazol-3-yl)thiophene-2-carboxamide] was tested, and the inhibition at 1 µM was 38%.

Compound `Cc1ncsc1C(=O)N1CCOCC1CNC(=O)c1ccc(-c2noc(C(F)(F)F)n2)s1` (stereo not drawn) [Example 238, N-((4-((4-methyl-1,3-thiazol-5-yl)carbonyl)morpholin-3-yl)methyl)-5-(5-(trifluoromethyl)-1,2,4-oxadiazol-3-yl)thiophene-2-carboxamide] has an inhibition at 1 µM of 98%.
